According to patent publication US6211244A, “Calcium receptor-active compounds” (priority 1995, dated 2001):
Counter-ions that a name gives are not always drawn.

Assays:
[1] = system: Parathyroid Cell Calcium Receptor; assay: EC50 in parathyroid cells or HEK 293/pHuPCaR4.0 cells loaded with fura-2; type: cell-based, calves and humans; settings: parathyroid cells or HEK 293/pHuPCaR4.0, fura-2; cell type not given per value
Method: This section describes procedures used to obtain parathyroid cells from calves and humans, and to use the parathyroid cells to measure calcium receptor activity.
Human parathyroid glands, were obtained from patients undergoing surgical removal of parathyroid tissue for primary or uremic hyperparathyroidism (uremic HPT), and were treated similarly to bovine tissue.
Glands were trimmed of excess fat and connective tissue and then minced with fine scissors into cubes approximately 2-3 mm on a side. Dissociated parathyroid cells were prepared by collagenase digestion and then purified by centrifugation in Percoll buffer.
Primary culture also has the advantage that cells can be labeled with isotopes to near isotopic equilibrium, as is necessary for studies involving measurements of inositol phosphate metabolism.
ITS+ is a premixed solution containing insulin, transferrin, selenium, and bovine serum albumin (BSA)-linolenic acid (Collaborative Research, Bedford, Mass.). The cells were then transferred to plastic flasks (75 or 150 cm^2; Falcon) and incubated overnight at 37° C. in a humid atmosphere of 5% CO2. No serum is added to these overnight cultures, since its presence allows the cells to attach to the plastic, undergo proliferation, and dedifferentiate.
The cells were then pelleted, resuspended in the same buffer, but lacking the ester, and incubated a further 15 minutes at 37° C. The cells were subsequently washed twice with PCB containing 0.5 mM CaCl2 and 0.5% BSA and maintained at room temperature (about 20° C.). Immediately before use, the cells were diluted five-fold with prewarmed 0.5 mM CaCl2 -PCB to obtain a final BSA concentration of 0.1%. The concentration of cells in the cuvette used for fluorescence recording was 1-2×10^6 /ml.
The fluorescence of indicator-loaded cells was measured at 37° C. in a spectrofluorimeter (Biomedical Instrumentation Group, University of Pennsylvania, Philadelphia, Pa.) equipped with a thermostated cuvette holder and magnetic stirrer using excitation and emission wavelengths of 340 and 510 nm, respectively. […] To correct the calibration for dye leakage, cells were placed in the cuvette and stirred at 37° C. for 2-3 minutes. The cell suspension was then removed, the cells pelleted, and the supernatant returned to a clean cuvette. […] This estimate was subtracted from the apparent Fmin.
HEK 293 cells transfected with pHuPCaR4.0 were loaded with fura-2 by incubating the cells in Dulbecco's modified Eagle's media buffered with 20 mM HEPES containing about 5 μM […] for one hour at room temperature. Cell were then rinsed with Hank's balanced salt solution buffered with 20 mM HEPES containing 1 mM CaCl2 and 1 mM MgCl2. Compounds to be tested were then added to the cells and fluorescence was measured (excitation and emission wavelengths of 340 and 510 nm, respectively).

human calcium receptor = target: T1, human calcium receptor (Homo sapiens, UniProt P41180, R990G); assay: increases in [Ca^2+ ]i in HEK-293 cells expressing the human calcium receptor (fura-2 loaded HEK 293/pHuPCaR4.0 cells), % activity; type: cell-based
T1 construct: expressed in transfected cells; host or cells: HEK 293
T1 sequence (P41180 20-1078 R990G): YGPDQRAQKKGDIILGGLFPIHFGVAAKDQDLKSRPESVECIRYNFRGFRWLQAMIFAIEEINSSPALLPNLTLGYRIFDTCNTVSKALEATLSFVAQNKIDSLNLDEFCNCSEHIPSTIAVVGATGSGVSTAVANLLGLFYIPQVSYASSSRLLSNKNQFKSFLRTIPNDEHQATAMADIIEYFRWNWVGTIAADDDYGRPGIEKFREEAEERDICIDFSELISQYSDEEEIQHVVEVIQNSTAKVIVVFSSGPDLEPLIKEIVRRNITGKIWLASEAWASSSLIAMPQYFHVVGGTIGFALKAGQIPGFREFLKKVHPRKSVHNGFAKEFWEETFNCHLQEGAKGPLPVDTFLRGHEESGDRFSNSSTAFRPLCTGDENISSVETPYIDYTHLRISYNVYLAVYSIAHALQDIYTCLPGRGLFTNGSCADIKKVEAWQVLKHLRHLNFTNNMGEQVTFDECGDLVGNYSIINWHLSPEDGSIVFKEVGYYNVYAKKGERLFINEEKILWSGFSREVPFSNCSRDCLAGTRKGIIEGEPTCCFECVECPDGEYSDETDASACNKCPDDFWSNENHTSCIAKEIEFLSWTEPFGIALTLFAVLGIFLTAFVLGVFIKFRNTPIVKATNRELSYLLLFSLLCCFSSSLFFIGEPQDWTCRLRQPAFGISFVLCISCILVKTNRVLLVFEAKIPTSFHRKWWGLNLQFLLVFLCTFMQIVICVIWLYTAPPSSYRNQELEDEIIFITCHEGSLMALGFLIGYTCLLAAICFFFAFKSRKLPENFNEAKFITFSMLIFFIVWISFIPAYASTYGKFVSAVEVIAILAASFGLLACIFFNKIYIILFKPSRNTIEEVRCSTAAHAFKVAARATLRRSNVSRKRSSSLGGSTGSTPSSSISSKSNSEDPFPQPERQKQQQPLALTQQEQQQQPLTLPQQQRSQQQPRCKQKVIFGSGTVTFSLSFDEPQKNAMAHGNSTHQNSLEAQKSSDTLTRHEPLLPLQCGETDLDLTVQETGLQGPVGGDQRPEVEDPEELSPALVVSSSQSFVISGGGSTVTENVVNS

Structure (SMILES)	EC50 [1]	% activity (human calcium receptor; 33 ng/mL)	% activity (human calcium receptor; 330 ng/mL)
C[C@H](CCc1cccc(C(F)(F)F)c1)N[C@@H](C)c1cccc2ccccc12 [Compound 25C, (S,R)-N-[4-(3-trifluoromethylphenyl)-2-butyl]-1-(1-naphthyl)ethylamine]	> 2000 nM		
C[C@H](CCc1cccc(C(F)(F)F)c1)N[C@H](C)c1cccc2ccccc12 [Compound 25D, (R,R)-N-[4-(3-trifluoromethylphenyl)-2-butyl]-1-(1-naphthyl)ethylamine]	19 nM		
Cc1ccc(CN[C@H](C)c2cccc3ccccc23)cc1C [Compound 16V]	< 130 nM	102%	114%
COc1cccc([C@@H](C)NCCCc2cccc(F)c2)c1 [Compound 4N]	800 nM	65%	100%
C[C@@H](NCc1ccc2c(c1)OCCO2)c1cccc2ccccc12 [Compound 13X]	< 750 nM	65%	102%
CC(N[C@H](C)c1ccccc1)c1ccc2ccccc2c1 (stereo partly shown) [Compound 4H, N-[1-(2-naphthyl)ethyl]-1-phenylethylamine]	≥ 3000 nM	37%	77%
CCCOc1ccc(CN[C@H](C)c2cccc3ccccc23)cc1 [Compound 13Q]	~800 nM	46%	95%
C[C@@H](NCCCc1ccccc1Cl)c1cccc2ccccc12 [Compound 12Z, N-3-(2-chlorophenyl)-1-propyl-(R)-1-(1-naphthyl) ethylamine hydrochloride]	110 nM		
C[C@H](CCc1ccccc1)N[C@H](C)c1cccc2ccccc12 [Compound 21F, (R,R)-N-(4-phenyl-2-butyl)-1-(1-naphthyl)etbylamine]	380 nM	85%	109%
COc1cccc([C@@H](C)N[C@H](C)CCc2ccccc2)c1 [Compound 21D, (R,R)-N-(4-phenyl-2-butyl)-1-(3-methoxyphenyl)ethylamine]	3000 nM	75%	104%
COc1ccc([C@@H](C)N[C@H](C)c2cccc3ccccc23)cc1Cl [Compound 17X, (R,R)-N-(1-Ethyl-4'-methoxy-3'-chlorophenyl)-1-(1-naphthylethyl) amine]	20 nM	93%	105%
CC(C)C(N[C@H](C)c1cccc2ccccc12)c1ccc2ccccc2c1 (stereo partly shown) [Compound 10F]	890 nM	84%	96%
COc1cccc([C@@H](C)NC2CCN(Cc3ccccc3)CC2)c1 [Compound 20F]	< 1000 nM		
CSc1ccc(CN[C@H](C)c2cccc3ccccc23)cc1 [Compound 16X]	100 nM	96%	111%
CCC(CCc1ccccc1)NC(C)c1cccc(OC)c1 (stereo not shown) [Compound 20S]	4200 nM		
C[C@@H](CCc1ccccc1)N[C@H](C)c1cccc2ccccc12 [Compound 21G]	1100 nM	63%	88%
COc1ccc([C@H](C)N[C@H](C)c2cccc3ccccc23)cc1 [Compound 14V]	1700 nM		
CC(NC1CCc2ccccc21)c1cccc2ccccc12 (mixture of isomers) [Compound 9A]		56%	82%
COc1ccc(CNC(C)c2cccc(C(C)=O)c2)cc1C (stereo not shown) [Compound 23U]		48%	87%
